Experimental data published in US6410790B1, “3-amin3-arylpropan-1-ol compounds, their preparation and use” (priority 1999, dated 2002).

How the values were obtained:
[1] = tested on: phenylquinone-induced writhing reaction; assay: phenylquinone-induced writhing test in mice; assay type: in vivo; details: Mus musculus, iv, 10 min, male NMRI mice, 10 mg/kg intravenously, phenylquinone i.p. 10 minutes later
Summary of the method: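 Male NMRI mice (25–30 g, n=10/group) received test substance i.v. at 10 mg/kg, then 0.02% phenylquinone i.p. 10 min later. Writhing reactions were counted 5–20 min after phenylquinone; % inhibition is relative to saline-treated controls.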

NA transporter = molecular target: T1, NA transporter (Rattus norvegicus, UniProt Q63380); assay: synaptosomal noradrenaline uptake inhibition (NA uptake inhibition); assay type: biochemical; details: read-out: NA Uptake Inhibition at 1 μM, 1 μM in the assay, synaptosomes from rat hypothalamus
T1 construct: synaptosomes are isolated fresh from rat brains; from tissue; host or cells: rat hypothalamus synaptosomes (P2 fraction)
T1 sequence (Q63380 1-617): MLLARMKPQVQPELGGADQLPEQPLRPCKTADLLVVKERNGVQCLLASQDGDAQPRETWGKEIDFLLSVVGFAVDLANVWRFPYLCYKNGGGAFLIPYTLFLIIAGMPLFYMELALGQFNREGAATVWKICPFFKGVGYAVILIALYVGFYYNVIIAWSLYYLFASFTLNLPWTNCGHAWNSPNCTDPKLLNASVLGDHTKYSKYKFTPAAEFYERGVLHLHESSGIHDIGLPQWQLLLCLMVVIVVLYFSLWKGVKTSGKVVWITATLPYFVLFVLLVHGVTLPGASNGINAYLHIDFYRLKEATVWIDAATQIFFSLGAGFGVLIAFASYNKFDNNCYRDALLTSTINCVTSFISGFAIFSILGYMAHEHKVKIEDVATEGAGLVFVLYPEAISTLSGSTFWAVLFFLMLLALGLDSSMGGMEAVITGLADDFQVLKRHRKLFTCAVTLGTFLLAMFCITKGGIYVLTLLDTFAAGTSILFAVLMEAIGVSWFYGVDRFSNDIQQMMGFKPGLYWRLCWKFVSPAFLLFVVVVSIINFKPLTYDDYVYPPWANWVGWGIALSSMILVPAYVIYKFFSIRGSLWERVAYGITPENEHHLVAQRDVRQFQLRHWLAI
Summary of the method: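 IC50 values converted to Ki via Cheng-Prusoff; Km by Lineweaver-Burk. N=4 independent series, each in triplicate, mean ± SEM.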

[2] = tested on: phenylalkylamine binding site of the L-type calcium channel; assay: Verapamil binding, L calcium channel; details: 10 μM, percentage inhibition, N-methyl-[3H]-verapamil 2 nM
Procedure: Binding Investigations in the L Calcium Channel
Phenylalkylamine Binding Site (Verapamil Binding)
The biological material (ion channel particles) was prepared on the basis of the publication of Reynolds, Gould and Snyder (I. J. Reynolds, R. J. Gould and S. H. Snyder (1983) […]. 95, 319-321).
N-methyl-[^3H]-verapamil (2 nM in the assay) was used as radioligand. The radioactivity that is measured in the presence of non-radioactive verapamil (10^−4 M in the assay) is defined as non-specific binding. The material was incubated at 25° C. for 45 minutes. The material was then filtered using a Whatman GF/B filter, followed by washing. The radioactivity remaining on the filter (ion channel binding) was measured using a β-counter.
For this purpose IC50 values are obtained, which can be converted to inhibitor constants (Ki) according to the “Cheng-Prusoff equation” (Y. C. Clieng and W. H. Prusoff (1973) Biochem. Pharmacol. 22, 3099-3108). The IC50 values were obtained by means of the computer program “Figure P” (version 6.0, Biosoft, Cambridge, England). Km values were calculated according to Lineweaver and Burk (H. Lineweaver and D. Burk (1934) J. Am. Chem. Soc. 56, 658-666). The “Ligand” computer program (version 4, Biosoft, England) was used to obtain Ken values.

[3] = tested on: benzothiazepine binding site of the L-type calcium channel; assay: Diltiazem binding, L calcium channel; design: species or system rat; details: 10 μM, percentage inhibition, [3H]-cis-(+)-diltiazem 5 nM, rat cerebral cortex membranes
Summary of the method: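 Rat cerebral cortex membranes incubated with [^3H]-cis-(+)-diltiazem (5 nM) for 20 min at 25° C; nonspecific binding defined with (±)-diltiazem (10^−6 M). Bound ligand collected by GF/B filtration and counted; IC50 values converted to Ki by Cheng-Prusoff.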

[4] = tested on: binding site 2 of the sodium channel; assay: BTX binding, sodium channel; details: 10 μM, percentage inhibition, [3H]-batrachotoxin A20 α-benzoate 10 nM, rat cerebral cortex synaptosomes
Summary of the method: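 Rat cerebral cortex synaptosomes incubated with 10 nM [^3H]-batrachotoxin A20 α-benzoate at 37° C for 120 min; non-specific binding defined with 0.3 mM veratridine. IC50 values converted to Ki via Cheng-Prusoff; means±SEM of 3 independent series run in triplicate.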

For Cc1ccc(C2(O)CCCCC2C(c2ccccc2)N(C)C)cc1.Cl (stereo not shown) [Example 8, 2-(dimethylaminophenylmethyl)-1-p-tolylcyclohexanol, hydrochloride], the inhibition in vivo at 10 mg/kg [1] was 81%, the inhibition at 1 µM (NA transporter) was 50% and the “Verapamil Binding at 10 μM” value [2] was 56%. For the same molecule, the “Diltiazem Binding at 10 μM” value [3] was 68%, the “BTX Binding at 10 μM” value [4] was 88% and the melting point was 168 to 169 °C.

With CN(C)C(c1ccccc1)C1CCCCC1(O)c1ccc(F)c(C(F)(F)F)c1.Cl (stereo not shown) [Example 15, 2-(dimethylaminophenylmethyl)-1-(4-fluoro-3-trifluoromethylphenyl)cyclohexanol, hydrochloride] the inhibition in vivo at 10 mg/kg [1] was 73%, the inhibition at 1 µM (NA transporter) was 44% and the “Verapamil Binding at 10 μM” value [2] was 87%. The “Diltiazem Binding at 10 μM” value [3] was 97%, the “BTX Binding at 10 μM” value [4] was 94% and the melting point was 234 to 237 °C.

In the case of CN(C)C(c1ccccc1)C1CCCCC1(O)Cc1ccc(C(C)(C)C)cc1.Cl (stereo not shown) [Example 28, 1-(4-tert.-butylbenzyl)-2-(dimethylaminophenylmethyl)cyclohexanol, hydrochloride], the inhibition in vivo at 10 mg/kg [1] is reported as 100%, the inhibition at 1 µM (NA transporter) is reported as 63% and the “Diltiazem Binding at 10 μM” value [3] is reported as 89%. For the same molecule, the “BTX Binding at 10 μM” value [4] was 100% and the melting point was 227 to 229 °C.

With CN(C)C(c1ccccc1)C1CCCCC1(O)Cc1cccc(F)c1.Cl (stereo not shown) [Example 29, 2-(dimethylaminophenylmethyl)-1-(3-fluorobenzyl)cyclohexanol, hydrochloride] the inhibition in vivo at 10 mg/kg [1] was 96%, the inhibition at 1 µM (NA transporter) was 96% and the “Diltiazem Binding at 10 μM” value [3] was 72%. The “BTX Binding at 10 μM” value [4] was 88% and the melting point was 146 to 147 °C.
